Reference: ChEMBL document CHEMBL3393012, “Osteoprotective effect of geraniin against ovariectomy-induced bone loss in rats” (Bioorg Med Chem Lett, 2015)
Calls of active or inactive are those of the source. The rule behind the calls is not given here.

Key:
Type in all cases: functional, organism-based
Rattus norvegicus [1] = experiment: Antiosteoporotic effect in OVX-induced Wistar rat osteoporosis model assessed as increase in trabecular number in left femur at 20 to 40 mg/kg/day, ig administered for 2 weeks by histomorhological analysis relative to control
Rattus norvegicus [2] = experiment: Antiosteoporotic effect in OVX-induced Wistar rat osteoporosis model assessed as increase in bone mineral density of third lumbar vertebra at 20 to 40 mg/kg/day, ig administered for 2 weeks by dual-energy X-ray absorptiometry relative to control
Rattus norvegicus [3] = experiment: Antiosteoporotic effect in OVX-induced Wistar rat osteoporosis model assessed as increase in serum calcitonin level at 40 mg/kg/day, ig administered for 2 weeks by RIA relative to control
Rattus norvegicus [4] = experiment: Antiosteoporotic effect in OVX-induced Wistar rat osteoporosis model assessed as increase in ultimate load of third lumbar vertebra at 20 to 40 mg/kg/day, ig administered for 2 weeks by […] relative to control
Rattus norvegicus [5] = experiment: Antiosteoporotic effect in OVX-induced Wistar rat osteoporosis model assessed as increase in femur dry weight at 40 mg/kg/day, ig administered for 2 weeks relative to control
Rattus norvegicus [6] = experiment: Antiosteoporotic effect in OVX-induced Wistar rat osteoporosis model assessed as decrease in urinary DPD/Cr level at 20 to 40 mg/kg/day, ig administered for 2 weeks by ELISA relative to control; settings: Urine
Rattus norvegicus [7] = experiment: Antiosteoporotic effect in OVX-induced Wistar rat osteoporosis model assessed as increase in bone calcium content at 40 mg/kg/day, ig administered for 2 weeks by flame atomic absorption spectroscopy relative to control
Rattus norvegicus [8] = experiment: Antiosteoporotic effect in OVX-induced Wistar rat osteoporosis model assessed as increase in bone mineral density of left femur at 20 to 40 mg/kg/day, ig administered for 2 weeks by dual-energy X-ray absorptiometry relative to control
Rattus norvegicus [9] = experiment: Antiosteoporotic effect in OVX-induced Wistar rat osteoporosis model assessed as decrease in trabecular separation in left femur at 20 to 40 mg/kg/day, ig administered for 2 weeks by histomorhological analysis relative to control
Rattus norvegicus [10] = experiment: Antiosteoporotic effect in OVX-induced Wistar rat osteoporosis model assessed as increase in serum phosphorus level at 20 to 40 mg/kg/day, ig administered for 2 weeks by colorimetric method relative to control
Rattus norvegicus [11] = experiment: Antiosteoporotic effect in OVX-induced Wistar rat osteoporosis model assessed as decrease in serum ALP level at 20 to 40 mg/kg/day, ig administered for 2 weeks by colorimetric method relative to control
Rattus norvegicus [12] = experiment: Antiosteoporotic effect in OVX-induced Wistar rat osteoporosis model assessed as increase in bone mineral content of third lumbar vertebra at 20 to 40 mg/kg/day, ig administered for 2 weeks by dual-energy X-ray absorptiometry relative to control
Rattus norvegicus [13] = experiment: Antiosteoporotic effect in OVX-induced Wistar rat osteoporosis model assessed as increase in trabecular number in third lumbar vertebra at 20 to 40 mg/kg/day, ig administered for 2 weeks by histomorhological analysis relative to control
Rattus norvegicus [14] = experiment: Antiosteoporotic effect in OVX-induced Wistar rat osteoporosis model assessed as increase in femur wet weight at 40 mg/kg/day, ig administered for 2 weeks relative to control
Rattus norvegicus [15] = experiment: Antiosteoporotic effect in OVX-induced Wistar rat osteoporosis model assessed as decrease in serum TRAP level at 20 to 40 mg/kg/day, ig administered for 2 weeks by colorimetric method relative to control
Rattus norvegicus [16] = experiment: Antiosteoporotic effect in OVX-induced Wistar rat osteoporosis model assessed as increase in trabecular thickness in third lumbar vertebra at 20 to 40 mg/kg/day, ig administered for 2 weeks by histomorhological analysis relative to control
Rattus norvegicus [17] = experiment: Antiosteoporotic effect in OVX-induced Wistar rat osteoporosis model assessed as increase in serum estradiol level at 40 mg/kg/day, ig administered for 2 weeks by RIA relative to control
Rattus norvegicus [18] = experiment: Antiosteoporotic effect in OVX-induced Wistar rat osteoporosis model assessed as increase in bone mineral content of left femur at 20 to 40 mg/kg/day, ig administered for 2 weeks by dual-energy X-ray absorptiometry relative to control
Rattus norvegicus [19] = experiment: Antiosteoporotic effect in OVX-induced Wistar rat osteoporosis model assessed as increase in ultimate load of left femur at 20 to 40 mg/kg/day, ig administered for 2 weeks by […] relative to control
Rattus norvegicus [20] = experiment: Antiosteoporotic effect in OVX-induced Wistar rat osteoporosis model assessed as decrease in serum CTX level at 20 to 40 mg/kg/day, ig administered for 2 weeks by ELISA relative to control
Rattus norvegicus [21] = experiment: Antiosteoporotic effect in OVX-induced Wistar rat osteoporosis model assessed as increase in serum calcium level at 20 to 40 mg/kg/day, ig administered for 2 weeks by colorimetric method relative to control
Rattus norvegicus [22] = experiment: Antiosteoporotic effect in OVX-induced Wistar rat osteoporosis model assessed as increase in trabecular thickness in left femur at 20 to 40 mg/kg/day, ig administered for 2 weeks by histomorhological analysis relative to control
Rattus norvegicus [23] = experiment: Antiosteoporotic effect in OVX-induced Wistar rat osteoporosis model assessed as increase in femur ash weight at 40 mg/kg/day, ig administered for 2 weeks relative to control
Rattus norvegicus [24] = experiment: Antiosteoporotic effect in OVX-induced Wistar rat osteoporosis model assessed as decrease in trabecular separation in third lumbar vertebra at 20 to 40 mg/kg/day, ig administered for 2 weeks by histomorhological analysis relative to control
Rattus norvegicus [25] = experiment: Antiosteoporotic effect in OVX-induced Wistar rat osteoporosis model assessed as increase in femur ash weight at 1 mg/kg/day, ig administered for 2 weeks relative to control
Rattus norvegicus [26] = experiment: Antiosteoporotic effect in OVX-induced Wistar rat osteoporosis model assessed as increase in bone mineral density of left femur at 1 mg/kg/day, ig administered for 2 weeks by dual-energy X-ray absorptiometry relative to control
Rattus norvegicus [27] = experiment: Antiosteoporotic effect in OVX-induced Wistar rat osteoporosis model assessed as increase in serum estradiol level at 1 mg/kg/day, ig administered for 2 weeks by RIA relative to control
Rattus norvegicus [28] = experiment: Antiosteoporotic effect in OVX-induced Wistar rat osteoporosis model assessed as increase in bone mineral density of third lumbar vertebra at 1 mg/kg/day, ig administered for 2 weeks by dual-energy X-ray absorptiometry relative to control
Rattus norvegicus [29] = experiment: Antiosteoporotic effect in OVX-induced Wistar rat osteoporosis model assessed as increase in bone calcium content at 1 mg/kg/day, ig administered for 2 weeks by flame atomic absorption spectroscopy relative to control
Rattus norvegicus [30] = experiment: Antiosteoporotic effect in OVX-induced Wistar rat osteoporosis model assessed as increase in trabecular number in left femur at 1 mg/kg/day, ig administered for 2 weeks by histomorhological analysis relative to control
Rattus norvegicus [31] = experiment: Antiosteoporotic effect in OVX-induced Wistar rat osteoporosis model assessed as decrease in urinary DPD/Cr level at 1 mg/kg/day, ig administered for 2 weeks by ELISA relative to control; settings: Urine
Rattus norvegicus [32] = experiment: Antiosteoporotic effect in OVX-induced Wistar rat osteoporosis model assessed as increase in serum calcium level at 1 mg/kg/day, ig administered for 2 weeks by colorimetric method relative to control
Rattus norvegicus [33] = experiment: Antiosteoporotic effect in OVX-induced Wistar rat osteoporosis model assessed as increase in femur wet weight at 1 mg/kg/day, ig administered for 2 weeks relative to control
Rattus norvegicus [34] = experiment: Antiosteoporotic effect in OVX-induced Wistar rat osteoporosis model assessed as increase in bone mineral content of third lumbar vertebra at 1 mg/kg/day, ig administered for 2 weeks by dual-energy X-ray absorptiometry relative to control
Rattus norvegicus [35] = experiment: Antiosteoporotic effect in OVX-induced Wistar rat osteoporosis model assessed as increase in bone mineral content of left femur at 1 mg/kg/day, ig administered for 2 weeks by dual-energy X-ray absorptiometry relative to control
Rattus norvegicus [36] = experiment: Antiosteoporotic effect in OVX-induced Wistar rat osteoporosis model assessed as increase in femur dry weight at 1 mg/kg/day, ig administered for 2 weeks relative to control
Rattus norvegicus [37] = experiment: Antiosteoporotic effect in OVX-induced Wistar rat osteoporosis model assessed as increase in trabecular thickness in left femur at 1 mg/kg/day, ig administered for 2 weeks by histomorhological analysis relative to control
Rattus norvegicus [38] = experiment: Antiosteoporotic effect in OVX-induced Wistar rat osteoporosis model assessed as increase in ultimate load of left femur at 1 mg/kg/day, ig administered for 2 weeks by […] relative to control
Rattus norvegicus [39] = experiment: Antiosteoporotic effect in OVX-induced Wistar rat osteoporosis model assessed as decrease in serum CTX level at 1 mg/kg/day, ig administered for 2 weeks by ELISA relative to control
Rattus norvegicus [40] = experiment: Antiosteoporotic effect in OVX-induced Wistar rat osteoporosis model assessed as decrease in trabecular separation in left femur at 1 mg/kg/day, ig administered for 2 weeks by histomorhological analysis relative to control
Rattus norvegicus [41] = experiment: Antiosteoporotic effect in OVX-induced Wistar rat osteoporosis model assessed as increase in ultimate load of third lumbar vertebra at 1 mg/kg/day, ig administered for 2 weeks by […] relative to control
Rattus norvegicus [42] = experiment: Antiosteoporotic effect in OVX-induced Wistar rat osteoporosis model assessed as decrease in serum ALP level at 1 mg/kg/day, ig administered for 2 weeks by colorimetric method relative to control
Rattus norvegicus [43] = experiment: Antiosteoporotic effect in OVX-induced Wistar rat osteoporosis model assessed as increase in serum calcitonin level at 1 mg/kg/day, ig administered for 2 weeks by RIA relative to control
Rattus norvegicus [44] = experiment: Antiosteoporotic effect in OVX-induced Wistar rat osteoporosis model assessed as decrease in serum TRAP level at 1 mg/kg/day, ig administered for 2 weeks by colorimetric method relative to control

O=C1O[C@H]2[C@@H]3OC(=O)c4cc(O)c(O)c(O)c4-c4c(cc(O)c(O)c4O)C(=O)OC[C@H]2O[C@@H](OC(=O)c2cc(O)c(O)c(O)c2)[C@@H]3OC(=O)c2cc(O)c(O)c3c2[C@@H]2C1=CC(=O)[C@](O)(O3)C2(O)O
Activity (Rattus norvegicus [1]): Active
Activity (Rattus norvegicus [2]): Active
Activity (Rattus norvegicus [3]): Active
Activity (Rattus norvegicus [4]): Active
Activity (Rattus norvegicus [5]): Active
Activity (Rattus norvegicus [6]): Active
Activity (Rattus norvegicus [7]): Active
Activity (Rattus norvegicus [8]): Active
Activity (Rattus norvegicus [9]): Active
Activity (Rattus norvegicus [10]): inactive
Activity (Rattus norvegicus [11]): Active
Activity (Rattus norvegicus [12]): Active
Activity (Rattus norvegicus [13]): Active
Activity (Rattus norvegicus [14]): Active
Activity (Rattus norvegicus [15]): Active
Activity (Rattus norvegicus [16]): Active
Activity (Rattus norvegicus [17]): Active
Activity (Rattus norvegicus [18]): Active
Activity (Rattus norvegicus [19]): Active
Activity (Rattus norvegicus [20]): Active
Activity (Rattus norvegicus [21]): Active
Activity (Rattus norvegicus [22]): Active
Activity (Rattus norvegicus [23]): Active
Activity (Rattus norvegicus [24]): inactive

C#C[C@@]1(O)[C@H](O)C[C@H]2[C@@H]3CCc4cc(OC5CCCC5)ccc4[C@H]3CC[C@@]21C
Activity (Rattus norvegicus [25]): Active
Activity (Rattus norvegicus [26]): Active
Activity (Rattus norvegicus [27]): Active
Activity (Rattus norvegicus [28]): Active
Activity (Rattus norvegicus [29]): Active
Activity (Rattus norvegicus [30]): Active
Activity (Rattus norvegicus [31]): Active
Activity (Rattus norvegicus [32]): Active
Activity (Rattus norvegicus [33]): Active
Activity (Rattus norvegicus [34]): Active
Activity (Rattus norvegicus [35]): Active
Activity (Rattus norvegicus [36]): Active
Activity (Rattus norvegicus [37]): Active
Activity (Rattus norvegicus [38]): Active
Activity (Rattus norvegicus [39]): Active
Activity (Rattus norvegicus [40]): Active
Activity (Rattus norvegicus [41]): Active
Activity (Rattus norvegicus [42]): Active
Activity (Rattus norvegicus [43]): Active
Activity (Rattus norvegicus [44]): Active
